For test [1], the target named is T1, UGT2B7 (Homo sapiens, UniProt P16662).
T1 sequence (P16662 24-529): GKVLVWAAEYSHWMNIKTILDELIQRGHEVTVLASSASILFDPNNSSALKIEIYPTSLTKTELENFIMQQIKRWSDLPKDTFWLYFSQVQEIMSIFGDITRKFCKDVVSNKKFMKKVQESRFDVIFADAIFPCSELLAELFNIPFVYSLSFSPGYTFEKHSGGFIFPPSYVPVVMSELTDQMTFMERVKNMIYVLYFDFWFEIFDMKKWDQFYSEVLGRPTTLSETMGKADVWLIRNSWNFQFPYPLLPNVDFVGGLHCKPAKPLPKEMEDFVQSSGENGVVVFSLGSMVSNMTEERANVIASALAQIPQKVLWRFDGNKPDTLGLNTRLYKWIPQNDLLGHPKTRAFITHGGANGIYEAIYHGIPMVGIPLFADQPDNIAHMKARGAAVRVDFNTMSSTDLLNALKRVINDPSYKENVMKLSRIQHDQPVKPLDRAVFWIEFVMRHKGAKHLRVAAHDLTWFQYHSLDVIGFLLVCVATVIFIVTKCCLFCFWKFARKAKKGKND
The following applies: data not shown.

The target of test [2] is T2, UGT1A9 (Homo sapiens, UniProt O60656).
T2 sequence (O60656 26-530): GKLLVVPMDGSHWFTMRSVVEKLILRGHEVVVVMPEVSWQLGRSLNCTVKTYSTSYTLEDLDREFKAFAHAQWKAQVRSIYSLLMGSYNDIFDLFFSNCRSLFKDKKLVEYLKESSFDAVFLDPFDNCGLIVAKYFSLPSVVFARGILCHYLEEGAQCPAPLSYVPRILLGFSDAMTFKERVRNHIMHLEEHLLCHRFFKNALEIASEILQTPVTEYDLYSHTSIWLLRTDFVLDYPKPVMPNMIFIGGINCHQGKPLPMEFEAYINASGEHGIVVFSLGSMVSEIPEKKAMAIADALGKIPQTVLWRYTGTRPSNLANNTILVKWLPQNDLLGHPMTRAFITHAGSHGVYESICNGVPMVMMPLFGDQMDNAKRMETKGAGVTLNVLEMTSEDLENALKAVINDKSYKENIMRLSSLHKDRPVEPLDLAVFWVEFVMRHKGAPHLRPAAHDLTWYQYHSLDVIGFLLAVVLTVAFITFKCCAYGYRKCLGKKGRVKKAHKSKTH

Test [3] deals with T2, UGT1A9. As to conditions: substrate inhibition model, propofol glucuronidation.

Where two headings read alike, the source gives them in different places.

Regarding propofol glucuronide, the “inhibition of UGT2B7-catalyzed morphine glucuronidation” value in test [1] was “No inhibition”. Also, in test [2], the UGT1A9 activity remained result was “greater than 60%” and the “inhibition of 2,6-dimethylphenol glucuronidation” value is on record as “only weak inhibition”.

As to `CC(C)c1cccc(C(C)C)c1O` [propofol], the Ki in test [3] (human hepatocytes treated with UGT1A9 siRNA) worked out at 448 ± 203 µM; in test [3] (human hepatocytes treated with UGT2B7 siRNA) it was 199 ± 88.9 µM; in test [3] (human hepatocytes, OPTI Only), 362 ± 31.3 µM; in test [3] (human hepatocytes, TR Only), 521 ± 46.3 µM.

The record behind these values is publication PMC4059507 (Archives of biochemistry and biophysics, 2013).
